Source: patent US12263154B2, “Composition using 4′,6,7-trimethoxyisoflavone and catechol for managing pulmonary fibrosis” (A-CHEMBIO CO., LTD, priority 2020, dated 2025)

Key:
cells in BALF = test: Change in cell number in bronchoalveolar lavage fluid (BALF), pulmonary fibrosis animal model; assay type: in vivo, mice; details: increased in BLM-administered group; FIG. 10
Protocol: (§1) The airways of the mice were incised, and bleomycin (3 mg/kg, BLM) was injected into the airways. After injection, the incision site was sutured with nylon thread, samples of BCT and/or BCC were administered daily 24 hours after bleomycin was injected. Mice were raised to 28 days from the start date of the experiment and sacrificed on day 29 to separate the broncho-alveolar lavage fluid (BALF) and lung tissue and used in further experiments.
Pulmonary fibrosis is characterized by an increase in the total number of cells and the percentage of neutrophils in the BALF fluid.
After collecting BALF from each experimental animal group, neutrophils and alveolar macrophages, including total cells, were measured. The method of measuring the total number of cells in BALF, the ratio of neutrophils and alveolar macrophages, etc., is as follows. BALF was mixed with trypan blue in a ratio of 1:1, and then the total number of cells was counted as ×104/BALF 1 mL using a hemocytometer (Fisher Scientific, PA, USA). The prepared BALF was spread on a slide glass and then stained with Diff Quik (manufactured by Sysmex Corporation, USA), the number of neutrophils and alveolar macrophages among a total of 200 cells was counted under a microscope, and the ratio was measured and recorded.

muscle cells (C2C12) = test: MTT cytotoxicity assessment; assay type: cell-based; details: 24 hours and 48 hours, FIG. 1
Protocol: (§2) Using the MTT (3-(4,5-dimethylthiazol-2yl)-2,5-diphenyl-2H-tetrazolium bromide) assay was applied to investigate the effect of TMF (BCT) and catechol (BCC) on cell proliferation. 5×10^3 cells/well were placed in a 96-well plate and incubated for 24 hours at 37° C., 5% CO2 incubator. Then, each sample was treated in each well according to the concentration and then incubated for 24 hours. Then, after washing with PBS, 20 μL of MTT dissolved in PBS and 200 μL of FBS-free DMEM were treated in each well and then incubated for 4 hours under the same conditions after blocking the light. After 4 hours, the culture solution was removed, treated with 200 μL of DMSO (dimethyl sulfoxide), and left at 37° C. for 2 hours, and absorbance was measured at 570 nm using a microplate reader.
(§3) The cell viability after 24 hours and 48 hours is shown in FIG. 1 as a percentage compared to the control group, the untreated sample group.

[1] = test system: human lung fetal cells (MRC-5); test: MTT cytotoxicity assessment; assay type: cell-based; details: 24 hours and 48 hours, FIG. 1
Protocol: as §2, §3

[2] = test system: human fibroblasts (HDF, Human Dermal Fibroblast); test: MTT cytotoxicity assessment; assay type: cell-based; details: 24 hours and 48 hours, FIG. 1
Protocol: as §2, §3

lung fibrosis = test: Histopathological examination in bleomycin pulmonary fibrosis animal model; assay type: in vivo, mice; details: BLM 3 mg/kg into airways, samples administered daily; for size of the fibrosis area according to the tissue scoring system (Ashcroft score): Masson's trichrome, graph at bottom of FIG. 8; for size of the increased fibrosis area (H&E staining): lung on day 29, FIG. 8
Protocol: The airways of the mice were incised, and bleomycin (3 mg/kg, BLM) was injected into the airways. After injection, the incision site was sutured with nylon thread, samples of BCT and/or BCC were administered daily 24 hours after bleomycin was injected. Mice were raised to 28 days from the start date of the experiment and sacrificed on day 29 to separate the broncho-alveolar lavage fluid (BALF) and lung tissue and used in further experiments. In order to evaluate lung fibrosis, animal models of each control group and experimental group were sacrificed, and the lungs were extracted from these animal models, fixed in 10% neutral buffered formalin (NBF), and then embedded with paraffin to produce tissue sections with a thickness of 2-4 um. After the sections were prepared, Hematoxylin-Eosin staining and Masson's trichrome staining were performed for comparison of histological findings and observed with an optical microscope. H&E staining was performed to evaluate inflammation and epithelial cell hypertrophy due to lung fibrosis, and Masson's trichrome staining was used to evaluate fibrosis using the following tissue scoring method (Scoring system, Ashcroft score). [table]

[3] = test system: EMT mechanism-related factors in A549 cells; test: Western blot of EMT mechanism-related factors; assay type: cell-based; details: BCT 10 μM, BCC 0.5 μM; for expression of E-cadherin: decreased by TGF-β1 treatment; for expression of E-cadherin / expression of Cyr61 / expression of Fibronectin / expression of Integrin β3 / expression of SMA2/3 / expression of Vimentin / expression of α-Sma: FIG. 4; for expression of Cyr61 / expression of Fibronectin / expression of Integrin β3 / expression of SMA2/3 / expression of Vimentin / expression of α-Sma / expression of pAKT / expression of pERK: increased by TGF-β1 treatment; for expression of pAKT / expression of pERK: FIG. 5
Protocol: 2×10^6 A549 cells were attached to a 100 mm culture vessel for 24 hours, treated with TGF-β1, TGF-β1 and sample BCT (10 μM) and/or TGF-β1 and sample BCC (0.5 μM)) and cultured. After collecting all of the cultured cells, the cell precipitate was dissolved in a cell lysate RIPA lysis buffer (LPS solution, Korea, Seoul), followed by centrifugation at 13,000 rpm for 20 minutes to obtain a supernatant. The total amount of protein was quantified using the BCA Protein assay kit (Thermo. Scientific, Wilmington, DE, USA) solution. After mixing the protein and 6× sample buffer (1 mL of glycerol, 0.5 mL of β- Mercaptoethanol, 3 mL of 10% SDS, 1.25 mL of 1 M Tris-HCl, 1-2 μg of bromophenol blue), electrophoresis was performed on SDS polyacrylamide gel. After transferring to Nitrocellulose Membrane (Millipore, Billerica, MA, USA) and blocking with 5% non-fat skim milk, protein expression levels of related factors were measured using various antibodies, and whether the protein amount was the same was confirmed using actin. Each of the primary antibodies was diluted and reacted at room temperature for 4 hours, washed 3 times with TBST, the secondary antibody was diluted at 1:5,000 and reacted at room temperature for 30 minutes. After washing with TBST, a band was obtained after light emission with ECL solution (LPS solution, Korea, Seoul). The results are shown in FIG. 4 for the Smad-dependent factor and FIG. 5 for the Smad-independent factor.

[4] = test system: alveolar epithelial A549 cells; test: Cell migration inhibition (scratch), EMT induced by TGF-β1; assay type: cell-based; details: TGF-β1-treated A549; BCT 10 μM, BCC 0.5 μM; 72 hours; FIG. 2
Protocol: As EMT progresses, the proliferation and movement of epithelial cells increases, cell penetration increases, and cell morphology changes, thereby confirming EMT inhibitory efficacy and evaluating the degree of expression of mechanism-related factors. A549 cells were seeded at 1×10^5 cells in 1 mL per well in a 6-well plate and cultured at 37° C. under 5% CO 2 for 24 hours. After 24 hours, a single cell layer was scratched with a 1 mL tip and a medium containing TGF-β1, TGF-β1, and sample BCT (10 μM) or TGF-β1, and sample BCC (0.5 μM) was added to each well. After culturing for 72 hours, the degree of cell migration was confirmed under a microscope, and images were taken.

[5] = test system: alveolar epithelial A549 cells; test: Cell penetration inhibition (Matrigel trans-well), EMT induced by TGF-β1; assay type: cell-based; details: TGF-β1-treated A549; BCT 10 μM, BCC 0.5 μM; 24 hours; FIG. 3
Protocol: As EMT progresses, the proliferation and movement of epithelial cells increases, cell penetration increases, and cell morphology changes, thereby confirming EMT inhibitory efficacy and evaluating the degree of expression of mechanism-related factors.
Trans-well inserts (Corning, USA) were coated with Matrigel® (Corning) at 2 mg/L. Dilute A549 cells to about 5×10^5/mL in 200 μl of serum-free media, and TGF-β1, TGF-β1 and sample BCT (10 μM) or TGF-β1 and sample BCC (0.5 μM) was added and dispensed into trans-well inserts. The cells were cultured for 24 hours by dispensing a medium containing 10% serum in the receive chambers. After the culture was completed, the cells remaining in the insert were removed, and the cells penetrating the receiving chamber were stained with crystal violet and photographed under a microscope.

[6] = test system: alveolar epithelial A549 cells; test: Cell morphological changes, EMT induced by TGF-β1; assay type: cell-based; details: changed by TGF-β1 treatment, BCT 10 μM, BCC 0.5 μM, 48 hours, FIG. 6
Protocol: A549 cells were seeded on a 60 mm plate at 1×10^5 /mL and cultured for 24 hours. Then, 5 mL of a medium containing TGF-β1, TGF-β1 and sample BCT (10 μM) and/or TGF-β1 and sample BCC (0.5 μM) was added to each well and incubated for another 48 hours. After culturing, the cells were checked under a microscope, and images were taken.

[7] = test system: major markers of pulmonary fibrosis in lung tissue; test: Western blot of protein expression level using lung tissue, pulmonary fibrosis animal model; assay type: in vivo, mice; details: compared to BLM-induced group; FIG. 9
Protocol: as §1
Animal models of each control group and the experimental group raised for 28 days were sacrificed, and lung tissue samples and serum samples were obtained from these animal models, respectively, and stored in a deep freezer at −70° C. Western blotting was performed for α-Sma, TGF-β1, Fibronectin, and E-cadherin proteins known as major markers of pulmonary fibrosis.
Lung tissue was put into T-PER buffer (lysis buffer, Thermo. Scientific, Wilmington, DE, USA) as a standard of 500 μL per 50 mg of tissue, and the tissue was homogenized using a homogenizer. The homogenized tissue was centrifuged at 13,000 rpm, and the supernatant was used as a sample for Western blot. The concentration of the tissue homogenate was quantified using a BCA Protein assay kit (Thermo. Scientific, Wilmington, DE, USA) solution. After mixing the protein and 6× sample buffer (1 mL of glycerol, 0.5 mL of β-Mercaptoethanol, 3 mL of 10% SDS, 1.25 mL of 1 M Tris-HCl, 1-2 μg of bromophenol blue), electrophoresis was performed on SDS polyacrylamide gel. After transferring to Nitrocellulose Membrane (Millipore, Billerica, MA, USA) and blocking with 5% non-fat skim milk, protein expression levels of related factors were measured using various antibodies, and whether the protein amount was the same was confirmed using actin. Each of the primary antibodies was diluted and reacted at room temperature for 4 hours, washed 3 times with TBST, the secondary antibody was diluted at 1:5,000 and reacted at room temperature for 30 minutes. After washing with TBST, a band was obtained after light emission with ECL solution (LPS solution, Korea, Seoul).

SMILES | number of lymphocytes in BALF (cells in BALF) | number of neutrophils in BALF (cells in BALF) | total number of cells in BALF (cells in BALF) | cytotoxicity (cell viability) (muscle cells (C2C12)) | cytotoxicity (cell viability) [1] | cytotoxicity (cell viability) [2] | size of the fibrosis area according to the tissue scoring system (Ashcroft score) (lung fibrosis) | size of the increased fibrosis area (H&E staining) (lung fibrosis) | expression of E-cadherin [3] | expression of Cyr61 [3] | expression of Fibronectin [3] | expression of Integrin β3 [3] | expression of SMA2/3 [3] | expression of Vimentin [3] | expression of α-Sma [3] | expression of pAKT [3] | expression of pERK [3] | cell migration [4] | number of cells penetrating into the receiving chamber [5] | cell morphology [6] | further results
COc1ccc(-c2coc3cc(OC)c(OC)cc3c2=O)cc1 [BCT, 4′,6,7-trimethoxyisoflavone] | significantly decreased | significantly decreased | significantly decreased | did not show any particular cytotoxicity | did not show any particular cytotoxicity | did not show any particular cytotoxicity | reduced | reduced | increased | decreased | decreased | decreased | decreased | decreased | decreased | decreased | decreased | decreased | decreased | recovered similarly to the control | E-cadherin expression in lung tissue [7]: increased; expression level of TGF-β1 in lung tissue [7]: decreased; expression level of fibronectin in lung tissue [7]: decreased; expression level of α-SMA in lung tissue [7]: decreased
Oc1ccccc1O [BCC, 1,2-dihydroxybenzene] | significantly decreased | significantly decreased | significantly decreased | did not show any particular cytotoxicity | did not show any particular cytotoxicity | did not show any particular cytotoxicity | reduced | reduced | increased | decreased | decreased | decreased | decreased | decreased | decreased | decreased | decreased | decreased | decreased | recovered similarly to the control | E-cadherin expression in lung tissue [7]: increased; expression level of TGF-β1 in lung tissue [7]: decreased; expression level of fibronectin in lung tissue [7]: decreased; expression level of α-SMA in lung tissue [7]: decreased
